Data reported in paper PMC8031368 (ACS chemical biology, 2020).

Assays:
ER = target: T1, ER (Homo sapiens, UniProt P03372); experiment: 3H-estradiol displacement assay on MCF7 cells; type: binding
T1 sequence (P03372 1-595): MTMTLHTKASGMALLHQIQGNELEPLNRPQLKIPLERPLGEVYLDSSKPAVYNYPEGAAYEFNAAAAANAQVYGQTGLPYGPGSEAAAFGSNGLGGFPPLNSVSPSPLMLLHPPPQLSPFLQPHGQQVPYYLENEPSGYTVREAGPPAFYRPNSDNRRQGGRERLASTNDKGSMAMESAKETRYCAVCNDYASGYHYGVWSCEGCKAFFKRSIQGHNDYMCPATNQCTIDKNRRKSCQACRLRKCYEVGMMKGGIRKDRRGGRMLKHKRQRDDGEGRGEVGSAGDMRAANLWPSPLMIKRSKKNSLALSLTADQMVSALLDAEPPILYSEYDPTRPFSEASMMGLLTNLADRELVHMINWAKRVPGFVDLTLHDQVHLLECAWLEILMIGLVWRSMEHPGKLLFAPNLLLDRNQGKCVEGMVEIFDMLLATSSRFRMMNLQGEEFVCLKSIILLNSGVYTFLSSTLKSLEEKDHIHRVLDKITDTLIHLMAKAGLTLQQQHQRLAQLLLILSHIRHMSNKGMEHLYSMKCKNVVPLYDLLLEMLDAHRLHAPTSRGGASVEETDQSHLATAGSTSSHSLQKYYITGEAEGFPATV

PR = target: T2, PR (Homo sapiens, UniProt P06401); experiment: 3H-progesterone displacement assay on MCF7 cells; type: binding
T2 sequence (P06401 1-933): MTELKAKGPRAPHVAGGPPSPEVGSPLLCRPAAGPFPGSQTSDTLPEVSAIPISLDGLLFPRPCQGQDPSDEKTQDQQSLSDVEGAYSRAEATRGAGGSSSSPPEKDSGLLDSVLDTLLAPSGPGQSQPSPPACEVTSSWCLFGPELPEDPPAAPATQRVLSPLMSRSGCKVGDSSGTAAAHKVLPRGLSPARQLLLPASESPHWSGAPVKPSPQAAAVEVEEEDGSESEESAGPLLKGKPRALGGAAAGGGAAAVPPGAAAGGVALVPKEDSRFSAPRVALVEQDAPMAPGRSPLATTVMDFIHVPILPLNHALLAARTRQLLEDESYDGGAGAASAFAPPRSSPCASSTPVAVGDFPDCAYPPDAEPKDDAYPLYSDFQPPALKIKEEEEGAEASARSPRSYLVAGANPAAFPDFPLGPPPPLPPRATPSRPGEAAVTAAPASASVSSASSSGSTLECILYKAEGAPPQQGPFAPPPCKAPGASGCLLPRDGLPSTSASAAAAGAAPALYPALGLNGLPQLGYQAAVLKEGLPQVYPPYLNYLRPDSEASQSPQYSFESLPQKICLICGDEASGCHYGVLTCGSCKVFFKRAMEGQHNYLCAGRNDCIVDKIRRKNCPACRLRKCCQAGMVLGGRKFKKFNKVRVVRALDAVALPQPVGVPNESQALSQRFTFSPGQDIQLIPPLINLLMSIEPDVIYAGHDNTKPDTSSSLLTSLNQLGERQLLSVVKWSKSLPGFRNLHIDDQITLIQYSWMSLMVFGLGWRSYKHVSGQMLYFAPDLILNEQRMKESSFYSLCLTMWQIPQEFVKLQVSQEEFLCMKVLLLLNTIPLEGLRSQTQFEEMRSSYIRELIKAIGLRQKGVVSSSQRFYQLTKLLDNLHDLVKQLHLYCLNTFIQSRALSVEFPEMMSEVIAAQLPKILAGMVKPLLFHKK

[1] = system: GR target genes (GILZ, FKBP5, Per1) in DU145 cells; experiment: Real time PCR of GR target genes in DU145 cells; type: cell-based, human
GR = target: T3, GR (Homo sapiens, UniProt P04150); experiment: 3H-dexamethasone displacement assay on DU145 cells; type: binding
T3 sequence (P04150 1-777): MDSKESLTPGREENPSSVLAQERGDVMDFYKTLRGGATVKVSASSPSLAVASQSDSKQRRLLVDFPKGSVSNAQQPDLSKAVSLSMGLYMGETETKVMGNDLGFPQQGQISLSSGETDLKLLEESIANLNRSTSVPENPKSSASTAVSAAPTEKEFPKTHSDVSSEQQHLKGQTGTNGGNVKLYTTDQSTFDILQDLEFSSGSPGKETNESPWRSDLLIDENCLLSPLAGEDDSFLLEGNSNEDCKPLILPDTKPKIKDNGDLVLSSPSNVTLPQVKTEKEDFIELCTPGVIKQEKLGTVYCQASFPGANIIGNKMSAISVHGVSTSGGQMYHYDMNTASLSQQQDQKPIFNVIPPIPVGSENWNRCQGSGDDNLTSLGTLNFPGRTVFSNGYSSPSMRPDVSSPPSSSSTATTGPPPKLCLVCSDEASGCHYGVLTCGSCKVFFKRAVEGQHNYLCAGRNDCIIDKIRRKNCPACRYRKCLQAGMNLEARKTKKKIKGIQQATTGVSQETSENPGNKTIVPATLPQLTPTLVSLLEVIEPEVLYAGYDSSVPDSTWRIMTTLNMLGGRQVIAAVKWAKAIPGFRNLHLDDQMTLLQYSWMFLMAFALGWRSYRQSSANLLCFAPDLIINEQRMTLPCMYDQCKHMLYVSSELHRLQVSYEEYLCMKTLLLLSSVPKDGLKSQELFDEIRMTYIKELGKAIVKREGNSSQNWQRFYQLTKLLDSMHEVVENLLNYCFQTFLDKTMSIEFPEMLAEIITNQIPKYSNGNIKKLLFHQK

AR = target: T4, AR (Homo sapiens, UniProt P10275); experiment: 3H-dihydrotestosterone displacement assay on LNCaP-AR cells; type: binding
T4 sequence (P10275 1-920): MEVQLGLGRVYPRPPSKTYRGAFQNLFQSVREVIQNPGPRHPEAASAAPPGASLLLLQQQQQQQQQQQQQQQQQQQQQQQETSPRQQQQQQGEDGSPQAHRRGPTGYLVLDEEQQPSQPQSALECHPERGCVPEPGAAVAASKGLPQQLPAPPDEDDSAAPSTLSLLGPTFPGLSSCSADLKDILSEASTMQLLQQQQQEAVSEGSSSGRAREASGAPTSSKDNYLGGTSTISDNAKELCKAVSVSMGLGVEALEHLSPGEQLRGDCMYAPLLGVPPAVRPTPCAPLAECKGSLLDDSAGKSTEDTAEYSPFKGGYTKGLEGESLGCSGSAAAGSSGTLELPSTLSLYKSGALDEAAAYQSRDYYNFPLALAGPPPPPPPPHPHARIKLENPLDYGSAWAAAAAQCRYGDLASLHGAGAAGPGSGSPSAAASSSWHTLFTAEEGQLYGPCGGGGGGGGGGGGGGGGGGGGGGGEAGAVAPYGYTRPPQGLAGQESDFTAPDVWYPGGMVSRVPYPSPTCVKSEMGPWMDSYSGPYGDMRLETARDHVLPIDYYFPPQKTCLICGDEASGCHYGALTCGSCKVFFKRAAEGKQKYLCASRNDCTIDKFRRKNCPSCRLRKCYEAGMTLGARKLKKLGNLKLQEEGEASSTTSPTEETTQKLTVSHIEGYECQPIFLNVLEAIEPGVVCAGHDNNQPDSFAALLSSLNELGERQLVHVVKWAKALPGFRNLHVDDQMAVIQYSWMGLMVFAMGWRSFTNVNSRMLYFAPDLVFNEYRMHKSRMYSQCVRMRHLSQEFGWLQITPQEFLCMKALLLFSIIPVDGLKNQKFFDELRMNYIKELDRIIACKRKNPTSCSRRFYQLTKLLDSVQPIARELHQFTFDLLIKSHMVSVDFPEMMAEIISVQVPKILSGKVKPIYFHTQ

`COc1cccc2c1-c1ccc3c(c1C(Cc1ccc(F)cc1)O2)C(C)=CC(C)(C)N3` (centres unmarked) [YJH08, 5-(4-fluorobenzyl)-10-methoxy-2,2,4-trimethyl-2,5-dihydro-1H-chromeno[3,4-f]quinoline] was tested, and the Ki (ER) was 19000 nM, the Ki (PR) was 555 nM and the “levels of GR target genes GILZ, FKBP5” value ([1]; DU145 cells, 10 μM, 6 h exposure, real time PCR) was “elevated”. For the same molecule, the “induction of Per1” value ([1]; DU145 cells, YJH08 10 μM, 6 h exposure) was “induced by dexamethasone but not YJH08”, the “GR functional activity (overall assessment)” value ([1]; from target gene induction in DU145 cells) was “mild GR agonist” and the Ki (GR; Ki GR, 3H-dexamethasone displacement, DU145 cells, one site Ki fit) was 0.401 nM. The Ki (GR; Ki for GR) was about 0.4 nM and the Ki (AR) was 220 nM.
